Reference: PMC11979685, “Synthesis of Derivatives of the Antibiotic Albicidin: The N‐Terminal Fragment as Key to Control Potency and Resistance Mediated by the Binding Protein AlbA” (Chemistry (Weinheim an Der Bergstrasse, Germany), 2025)

Tests used:
E. coli DSM 1116 = test: Qualitative growth inhibition assay in presence of AlbAS; type: cell-based, Escherichia coli; conditions: for GIA: E. coli inhibition +AlbA: E. coli DSM 1116, 10 µM compound with equimolar AlbAS; for bioactivity in presence of AlbAS (in words): E. coli, equimolar purified AlbAS
Procedure: Finally, we investigated if synthetic variations of building block A are able to evade the effects of the resistance protein AlbA. Therefore, we carried out a qualitative growth inhibition assay with derivatives 4–24 in presence of an equimolar amount of purified AlbAS. After incubation of the cultures overnight, the growth of the bacteria was evaluated. The ability of AlbAS to sufficiently sequester an albicidin derivative from the supernatant allowed E. coli cells to accumulate in a visible cell pellet. Second, we performed a quantitative transcription‐activation reporter assay[22] to assess transcriptional regulation by AlbAL. The promoter sequence pAlbA was inserted into a reporter vector that encodes the ilux luminescence cassette.[22] The luminescence signals elicited by ligand binding of synthetic variations to AlbAL was compared and normalized to the signal induced by 2nd Gen albicidin 2 and are hereby referred to as relative transcription activation (TA^%). The combination of both assays prompted us to categorize the experimental outcomes (Figure 4) in four groups:
Figure 4 Characterization of AlbA resistance against derivatives 2, 4–24. GIA: Qualitative growth inhibition assay against E. coli DSM 1116. (−): Derivative unable to inhibit the growth of E. coli in presence of AlbAS. (+): Derivative inhibits growth of E. coli in presence of AlbAS. […] For details see SI Figure 9. Transcription activation (TA) assay: luminescence elicited by 2nd Gen albicidin 2 from the TA assay was normalized to 100 % and the luminescence signal of tested derivatives provided: relative luminescence [%]=luminescence [derivative]/luminescence [2]×100 %. Green bars indicate low relative luminescence (<40 %) and red bars indicate high relative luminescence (>50 %). Error bars show the standard deviations of triplicate measurements. TEXT PRINTED IN THE PICTURE: 2: E. coli inhibition +AlbA: − | 4: E. coli inhibition +AlbA: + | 9: E. coli inhibition +AlbA: + | 11: E. coli inhibition +AlbA: + | 12: E. coli inhibition +AlbA: + | 13: E. coli inhibition +AlbA: ~ | 14: E. coli inhibition +AlbA: − | 16: E. coli inhibition +AlbA: − | 17: E. coli inhibition +AlbA: − | 18: E. coli inhibition +AlbA: − | 19: E. coli inhibition +AlbA: − | 20: E. coli inhibition +AlbA: + | 21: E. coli inhibition +AlbA: − | 22: E. coli inhibition +AlbA: − | 23: E. coli inhibition +AlbA: − | 24: E. coli inhibition +AlbA: − […]
1.3 Resistance assessment against AlbA
E. coli strain DSM 1116 was used for all susceptibility testing. E. coli BL21 Star (DE3) cells (Invitrogen) were used for protein expression. LB medium (Lysogeny broth: 10 g/L peptone, 5 g/L yeast extract, 5 g/L NaCl) was used as broth or in agar plates for all experiments. Incubation steps took place at 37°C and 180 rpm shaking if not stated otherwise. Throughout the study, 2nd Gen albicidin 2 was used as albicidin standard due to its better stability, availability and similar activity compared to natural albicidin in presence of resistance factors.[3,4]
AlbA expression and purification
N-terminally His-tagged AlbA was expressed using a pET28a vector as described previously.[5] In brief, E. coli BL21(DE3) cells were transformed with pET28-AlbA plasmid and grown in LB medium with kanamycin. LB broth supplemented with 50 µg/mL kanamycin was inoculated from over-night cultures and grown at 37°C until an OD600 of 0.6 was reached. After induction with 0.2 mM isopropyl β-D-1-thiogalactopyranoside (IPTG) the proteins were expressed at 18°C for 20 h. The cells were harvested by centrifugation (4,000 x G, 20 min), resuspended in lysis buffer (50 mM Tris, pH 8.0, 500 mM NaCl, 10% glycerol) and processed in a cell disruptor (Constant Systems Ltd) at 25 kPsi before centrifugation at 50,000 x G, at 4°C for 45 min. The lysate was incubated with Pure Cube Ni-NTA agarose (Cube Biotech, Germany) at 4°C for 20 min while shaking. The slurry was transferred to empty gravity-flow […]

[1] = Reverse-phase HPLC retention time as estimate of lipophilicity; type: physicochemical; conditions: indicator of lipophilicity
Excerpt: As mentioned before, albicidin 1 is a rather hydrophobic compound and improving its aqueous solubility is desirable. The lipophilicity of drug molecules is commonly characterized by the octanol/water partition coefficient (logP). An alternative approach relies on the correlation between lipophilicity and the retention time (Rt) on a reverse‐phase HPLC column.[31] This approach works well if structurally related compounds are compared as is the case for this SAR study. Rt was thus used to estimate the hydrophilicity of albicidin 1 and its derivatives 2–24 (Table 1).[32]

| Structure (SMILES) | GIA: E. coli inhibition +AlbA (E. coli DSM 1116) | bioactivity in presence of AlbAS (in words) (E. coli DSM 1116) | Rt (retention time) [1] |
| --- | --- | --- | --- |
| COc1c(NC(=O)c2ccc(NC(=O)c3ccc(NC(=O)[C@H](Cc4c[nH]nn4)NC(=O)c4ccc(NC(=O)c5ccc(C#N)cc5)cc4)cn3)c(OC)c2O)ccc(C(=O)O)c1O [compound 4] | + | has bioactivity | 8.20 min |
| COc1c(NC(=O)c2ccc(NC(=O)c3ccc(NC(=O)[C@H](Cc4c[nH]nn4)NC(=O)c4ccc(NC(=O)[C@@H](C)Oc5ccc(O)cc5)cc4)cn3)c(OC)c2O)ccc(C(=O)O)c1O [compound 9] | + | has bioactivity | 7.78 min |
| COc1c(NC(=O)c2ccc(NC(=O)c3ccc(NC(=O)[C@H](Cc4c[nH]nn4)NC(=O)c4ccc(NC(=O)c5ccc6ccccc6n5)cc4)cn3)c(OC)c2O)ccc(C(=O)O)c1O [compound 11] | + | highly bioactive | 9.49 min |
| COc1c(NC(=O)c2ccc(NC(=O)c3ccc(NC(=O)[C@H](Cc4c[nH]nn4)NC(=O)c4ccc(NC(=O)c5cc6ccccc6cn5)cc4)cn3)c(OC)c2O)ccc(C(=O)O)c1O [compound 12] | + | highly bioactive | 8.74 min |
| COc1c(NC(=O)c2ccc(NC(=O)c3ccc(NC(=O)[C@H](Cc4c[nH]nn4)NC(=O)c4ccc(NC(=O)c5cnc6ccccc6c5)cc4)cn3)c(OC)c2O)ccc(C(=O)O)c1O [compound 13] |  | has bioactivity | 8.07 min |
| COc1c(NC(=O)c2ccc(NC(=O)c3ccc(NC(=O)[C@H](Cc4c[nH]nn4)NC(=O)c4ccc(NC(=O)c5ccc6ncccc6c5)cc4)cn3)c(OC)c2O)ccc(C(=O)O)c1O [compound 14] | − | deactivated | 7.67 min |
| COc1c(NC(=O)c2ccc(NC(=O)c3ccc(NC(=O)[C@H](Cc4c[nH]nn4)NC(=O)c4ccc(NC(=O)c5ccc6nc(C)ccc6c5)cc4)cn3)c(OC)c2O)ccc(C(=O)O)c1O [compound 16] | − | deactivated | 6.94 min |
| COc1c(NC(=O)c2ccc(NC(=O)c3ccc(NC(=O)[C@H](Cc4c[nH]nn4)NC(=O)c4ccc(NC(=O)c5c[nH]c6ccccc6c5=O)cc4)cn3)c(OC)c2O)ccc(C(=O)O)c1O [compound 17] | − | deactivated | 7.98 min |
| CCn1cc(C(=O)Nc2ccc(C(=O)N[C@@H](Cc3c[nH]nn3)C(=O)Nc3ccc(C(=O)Nc4ccc(C(=O)Nc5ccc(C(=O)O)c(O)c5OC)c(O)c4OC)nc3)cc2)c(=O)c2ccc(C)nc21 [compound 18] | − | deactivated | 9.24 min |
| CCn1cc(C(=O)Nc2ccc(C(=O)N[C@@H](Cc3c[nH]nn3)C(=O)Nc3ccc(C(=O)Nc4ccc(C(=O)Nc5ccc(C(=O)O)c(O)c5OC)c(O)c4OC)nc3)cc2)c(=O)c2cc3c(cc21)OCO3 [compound 19] | − | deactivated | 8.45 min |
| COc1c(NC(=O)c2ccc(NC(=O)c3ccc(NC(=O)[C@H](Cc4c[nH]nn4)NC(=O)c4ccc(NC(=O)c5cc(=O)c6cc(F)ccc6o5)cc4)cn3)c(OC)c2O)ccc(C(=O)O)c1O [compound 20] | + | highly bioactive | 8.60 min |
| COc1c(NC(=O)c2ccc(NC(=O)c3ccc(NC(=O)[C@H](Cc4c[nH]nn4)NC(=O)c4ccc(NC(=O)c5cc6cc(O)ccc6[nH]5)cc4)cn3)c(OC)c2O)ccc(C(=O)O)c1O [compound 21] | − | deactivated | 7.50 min |
| COc1c(NC(=O)c2ccc(NC(=O)c3ccc(NC(=O)[C@H](Cc4c[nH]nn4)NC(=O)c4ccc(NC(=O)c5ccc6ncsc6c5)cc4)cn3)c(OC)c2O)ccc(C(=O)O)c1O [compound 22] | − | deactivated | 7.65 min |
| COc1c(NC(=O)c2ccc(NC(=O)c3ccc(NC(=O)[C@H](Cc4c[nH]nn4)NC(=O)c4ccc(NC(=O)c5ccc6nc[nH]c6c5)cc4)cn3)c(OC)c2O)ccc(C(=O)O)c1O [compound 23] | − | deactivated | 6.69 min |
| COc1c(NC(=O)c2ccc(NC(=O)c3ccc(NC(=O)[C@H](Cc4c[nH]nn4)NC(=O)c4ccc(NC(=O)c5ccc6nn[nH]c6c5)cc4)cn3)c(OC)c2O)ccc(C(=O)O)c1O [compound 24] | − | deactivated | 7.16 min |
